Measurements: patent publication US10934527B2, “Generation of lineage-restricted progenitor cells from differentiated cells” (The Regents of the University of California, priority 2011, dated 2021)
Entries after “also recorded” stand apart in the source; their conditions may differ.

How the values were obtained:
primary myotubes = experiment: Apoptosis / cell death in treated primary myotubes; type: cell-based, mice
YFP+ myotubes = experiment: De-differentiation assay of lineage-marked YFP+ primary myotubes; type: cell-based, mice
Protocol: WT myoblasts or Tet-Oct4 (3×10^5) myoblasts upon 4-6 hour infection with 300 MOI of Ad-Cre virus were washed with growth medium twice to get rid of any residual virus and incubated for another 24 hours in growth medium at 37° C. in 5% CO2 incubator. These myoblasts were then lifted off from the plates by addition of 1×PBS, counted (3×10^4 cells/well) and co-cultured with 7×10^4 Lox-YFP myoblasts (obtained from B6.129X1-Gt(ROSA)26Sor^tm1(EYFP)Cos/J mice strain) per well in differentiation inducing medium DMEM (Cellgro)+2% horse serum+1% Penicillin/Streptomycin on 12 well (BD Falcon) on ECM (1:500) coated 12 well plates. […] The inhibitors were then withdrawn and cells were switched to growth medium containing bFGF (9 ng/ml). The treated cells were fed fresh growth medium and bFGF everyday over a period of time and the morphology of YFP expressing myotubes was routinely visualized by epifluorescence microscope using YFP filter and photographed using 10× and 20× objectives. For live Hoechst staining, 4 μM of Hoechst was added everyday to YFP labeled myotube cultures, incubated for 10 minutes at 37° C. in 5% CO2 incubator, washed off to remove unlabeled Hoechst and photographed.
The labeled YFP^+ myotubes per well in 4 day old Cre-Lox myotube cultures were determined to be ˜2600. After inhibitor treatment, ˜350 YFP^+ mononucleated cells were found in culture. […] Another method was based on the determination of Lox YFP myonuclei in labeled myotubes. […] Therefore, reprogramming efficiency calculated was the percent of YFP^+ mononucleated cells out of an estimated total number of Lox YFP myonuclei in YFP^+ myotubes and was determined ˜5.04% [(350/6940)×100] (see FIG. 11D).

[1] = 96 hour old YFP+ myotubes treated daily for 2 days in DM (10 μM), then switched to GM

Molecule: O.O.O.OO.OO.[K+].[OH-].[V].c1cnc2c(c1)ccc1cccnc12 [BpV, potassium bisperoxo(1,10-phenanthroline)oxovanadate]
- cell death / apoptosis of myotubes (primary myotubes; myotubes treated with BpV alone): cell death occurred; also recorded: did show apoptosis
- de-differentiation frequency / reprogramming efficiency, method 1: percent of YFP+ mononucleated cells out of the total number of labeled YFP+ myotubes (YFP+ myotubes; [1]): ~1.18%
- reprogramming efficiency, method 2: percent of YFP+ mononucleated cells out of estimated total number of Lox YFP myonuclei in YFP+ myotubes (YFP+ myotubes; [1]): ~0.4%

Molecule: COc1cccc2c1C(=O)c1c(O)c3c(c(O)c1C2=O)C[C@@](O)(C(=O)CO)C[C@@H]3O[C@H]1C[C@H](N)[C@H](O)[C@H](C)O1 [doxorubicin]
- appearance of YFP+ mononucleated cells from Cre-Lox myotubes (YFP+ myotubes; 0.2 uM for 48 hours, alone or in combination with the apoptosis inhibitor, then growth media 72-96 hours): no YFP^+ mononucleated cells were observed

Molecule: N-(2-Quinolyl)valyl-aspartyl-(2,6-difluorophenoxy)methyl ketone [Q-VD]
- apoptosis by doxorubicin in Cre-Lox myotube cultures (primary myotubes; with 0.2 uM doxorubicin for 48 hours): reduced apoptosis
- appearance of YFP+ mononucleated cells from YFP+ myotubes (YFP+ myotubes; treated in DM, then switched to GM): no YFP^+ mononucleated cells were observed
